Laboratory results reported in EPA's ToxRefDB 2.

Experiments:
mouse [1] = conditions: Carcinogenicity, b6c3f1, Oral, Gavage/Intubation, dose end: 103 week, group: systemic
mouse [2] = conditions: Subchronic oral toxicity in rodents, b6c3f1, Gavage/Intubation, dose end: 13 week, group: systemic
rat [3] = conditions: Sub-acute repeat dose toxicity; fischer; Oral; Gavage/Intubation; dose end: 28 day; group: systemic; systemic / in life observation / mortality / mortality + systemic / organ weight / kidney / absolute + systemic / organ weight / kidney / …
mouse [4] = conditions: Sub-acute repeat dose toxicity; b6c3f1; Oral; Gavage/Intubation; dose end: 16 day; group: systemic; systemic / in life observation / mortality / mortality
rat [5] = conditions: Sub-acute repeat dose toxicity, fischer, Oral, Gavage/Intubation, dose end: 16 day, group: systemic
rat [6] = conditions: Carcinogenicity; fischer; Oral; Gavage/Intubation; dose end: 103 week; group: systemic; systemic / pathology microscopic / liver / necrosis
rat [7] = conditions: Acute inhalation toxicity, fischer, Nose-Only, dose end: 28 day, group: systemic, systemic / pathology microscopic / nose / hyperplasia + systemic / pathology microscopic / nose / lesion(s) (nos) + systemic / pathology …
rat [8] = conditions: Subchronic oral toxicity in rodents, fischer, Gavage/Intubation, dose end: 13 week, group: systemic
mouse [9] = conditions: Combined chronic toxicity/carcinogenicity; other; Oral; Feed; dose end: 104 week; group: systemic; systemic / in life observation / body weight / body weight
rat [10] = conditions: Subchronic oral toxicity in rodents, wistar, Feed, dose end: 3 month, group: systemic, systemic / clinical chemistry / albumin / albumin + systemic / clinical chemistry / calcium / calcium + systemic / clinical chemistry / …
rat [11] = conditions: Combined chronic toxicity/carcinogenicity, sprague dawley, Oral, Feed, dose end: 104 week, group: systemic
rat [12] = conditions: Multigenerational reproductive toxicity study, wistar, Oral, Feed, dose end: 2 generation
rabbit = conditions: Prenatal developmental toxicity study, himalayan, Oral, Gavage/Intubation, dose end: 19 GD
dog [13] = conditions: Chronic toxicity; beagle; Oral; Feed; dose end: 52 week; group: systemic; systemic / pathology microscopic / liver / hemosiderosis + systemic / pathology microscopic / spleen / hemosiderosis
rat [14] = conditions: Developmental neurotoxicity range-finding study; wistar; Oral; Gavage/Intubation; dose end: 21 PND; group: cannot be grouped; developmental / offspring survival late / [other] / [other] + systemic / in life observation / clinical signs / tremors
dog [15] = conditions: Chronic toxicity, beagle, Oral, Feed, dose end: 52 week, group: systemic
rat [16] = conditions: Chronic toxicity, wistar, Oral, Feed, dose end: 728 day, group: systemic
rat [17] = conditions: Combined chronic toxicity/carcinogenicity; wistar; Oral; Feed; dose end: 24 month; group: systemic; systemic / in life observation / body weight / body weight + systemic / in life observation / body weight / body weight gain + systemic / in…
rat [18] = conditions: Subchronic oral toxicity in rodents, fischer, Feed, dose end: 13 week, group: systemic
[19] = systemic / pathology microscopic / kidney / carcinoma + systemic / pathology microscopic / stomach / hyperplasia
[20] = systemic / organ weight / liver / relative to body weight
[21] = systemic / in life observation / clinical signs / labored respiration + systemic / in life observation / clinical signs / reduced activity…
[22] = systemic / in life observation / mortality / mortality + systemic / organ weight / kidney / absolute + systemic / organ weight / kidney / …
[23] = systemic / pathology microscopic / liver / vacuolization cytoplasmic
[24] = systemic / in life observation / food consumption / food consumption
[25] = systemic / in life observation / food consumption / food consumption + systemic / in life observation / body weight / body weight
[26] = group: offspring, developmental / developmental landmark / eye opening / eye opening
[27] = group: offspring, systemic / in life observation / body weight / offspring (pup) weight + systemic / in life observation / body weight / offspring (pup) …
[28] = group: parental, systemic / in life observation / body weight / body weight + systemic / in life observation / body weight / body weight gain + systemic / …
[29] = group: developmental, developmental / developmental malformation / bone / [other] + developmental / developmental malformation / bone / full supernumerary + …
[30] = group: maternal, systemic / in life observation / body weight / body weight gain + systemic / in life observation / food consumption / food consumption
[31] = systemic / in life observation / clinical signs / salivation
[32] = systemic / in life observation / clinical signs / salivation + systemic / in life observation / clinical signs / [other] + systemic / in …
[33] = systemic / in life observation / body weight / body weight + systemic / in life observation / body weight / body weight gain + systemic / …
[34] = systemic / organ weight / kidney / nos + systemic / organ weight / liver / nos + systemic / pathology microscopic / liver / hypertrophy
[35] = systemic / organ weight / kidney / nos + systemic / organ weight / liver / nos + systemic / pathology microscopic / liver / hypertrophy + …

O=Cc1ccco1 [Furfural]
LEL (mouse [1]; [19]): 50 mg/kg/day
NEL (mouse [1]; [19]): < 50 mg/kg/day
LOAEL (mouse [1]; systemic / pathology microscopic / liver / inflammation + systemic / pathology microscopic / liver / pigmentation): 100 mg/kg/day
NOAEL (mouse [1]; systemic / pathology microscopic / liver / inflammation + systemic / pathology microscopic / liver / pigmentation + systemic / pathology …): 50 mg/kg/day
LEL (mouse [2]; [20]): 75 mg/kg/day
NEL (mouse [2]; [20]): < 75 mg/kg/day
LOAEL (mouse [2]; systemic / pathology microscopic / liver / inflammation + systemic / pathology microscopic / liver / necrosis): 150 mg/kg/day
NOAEL (mouse [2]; systemic / pathology microscopic / liver / inflammation + systemic / pathology microscopic / liver / necrosis + systemic / in life …): 75 mg/kg/day
LEL (rat [3]): 192 mg/kg/day
LOAEL (rat [3]): 192 mg/kg/day
NEL (rat [3]): 96 mg/kg/day
NOAEL (rat [3]): 96 mg/kg/day
LEL (mouse [4]): 400 mg/kg/day
LOAEL (mouse [4]): > 400 mg/kg/day
NEL (mouse [4]): 200 mg/kg/day
NOAEL (mouse [4]): ≥ 400 mg/kg/day
LOAEL (rat [5]; [21]): > 240 mg/kg/day
NEL (rat [5]; [21]): 60 mg/kg/day
NOAEL (rat [5]; [21]): ≥ 240 mg/kg/day
LEL (rat [5]; systemic / in life observation / clinical signs / reduced activity): 120 mg/kg/day
LEL (rat [6]): 30 mg/kg/day
LOAEL (rat [6]): 30 mg/kg/day
NEL (rat [6]): < 30 mg/kg/day
NOAEL (rat [6]): < 30 mg/kg/day
LEL (rat [7]): 6 mg/kg/day
LOAEL (rat [7]): > 368 mg/kg/day
NEL (rat [7]): < 6 mg/kg/day
NOAEL (rat [7]): ≥ 368 mg/kg/day
LOAEL (rat [8]; [22]): > 180 mg/kg/day
NOAEL (rat [8]; [22]): ≥ 180 mg/kg/day
LEL (rat [8]; [23]): 11 mg/kg/day
NEL (rat [8]; [23]): < 11 mg/kg/day

C[N+]1(C)CCCCC1.[Cl-] [Mepiquat chloride]
LEL (mouse [9]): 169 mg/kg/day
LOAEL (mouse [9]): > 514 mg/kg/day
NEL (mouse [9]): 48.9 mg/kg/day
NOAEL (mouse [9]): ≥ 514 mg/kg/day
LEL (rat [10]): 826 mg/kg/day
LOAEL (rat [10]): 826 mg/kg/day
NEL (rat [10]): < 826 mg/kg/day
NOAEL (rat [10]): < 826 mg/kg/day
LEL (rat [11]; [24]): 186 mg/kg/day
LOAEL (rat [11]; [24]): 186 mg/kg/day
NEL (rat [11]; [25]): 62.4 mg/kg/day
NOAEL (rat [11]; [25]): 62.4 mg/kg/day
LEL (rat [12]; [26]): 48.6 mg/kg/day
NEL (rat [12]; [26]): < 48.6 mg/kg/day
LOAEL (rat [12]; [27]): 574 mg/kg/day
NOAEL (rat [12]; [27]): 147 mg/kg/day
LOAEL (rat [12]; group: parental, systemic / in life observation / body weight / body weight + systemic / in life observation / body weight / body weight gain): 499 mg/kg/day
LEL (rat [12]; [28]): 499 mg/kg/day
NEL (rat [12]; [28]): 153 mg/kg/day
NOAEL (rat [12]; [28]): 153 mg/kg/day
LEL (rabbit; [29]): 100 mg/kg/day
LOAEL (rabbit; [29]): 100 mg/kg/day
NEL (rabbit; [29]): 50 mg/kg/day
NOAEL (rabbit; [29]): 50 mg/kg/day
LEL (rabbit; [30]): 100 mg/kg/day
LOAEL (rabbit; [30]): 100 mg/kg/day
NEL (rabbit; [30]): 50 mg/kg/day
NOAEL (rabbit; [30]): 50 mg/kg/day
LEL (dog [13]): 58.4 mg/kg/day
LOAEL (dog [13]): > 58.4 mg/kg/day
NEL (dog [13]): 19.9 mg/kg/day
NOAEL (dog [13]): ≥ 58.4 mg/kg/day
LEL (rat [14]): 75 mg/kg/day
LOAEL (rat [14]): 75 mg/kg/day
NEL (rat [14]): < 75 mg/kg/day
NOAEL (rat [14]): < 75 mg/kg/day
LOAEL (dog [15]; [31]): 170 mg/kg/day
NOAEL (dog [15]; [31]): < 170 mg/kg/day
LEL (dog [15]; [32]): 170 mg/kg/day
NEL (dog [15]; [32]): < 170 mg/kg/day
LOAEL (rat [16]; [33]): 268 mg/kg/day
NEL (rat [16]; [33]): 13 mg/kg/day
NOAEL (rat [16]; [33]): 106 mg/kg/day
LEL (rat [16]; [24]): 106 mg/kg/day
LEL (rat [17]): 269 mg/kg/day
LOAEL (rat [17]): 269 mg/kg/day
NEL (rat [17]): 105 mg/kg/day
NOAEL (rat [17]): 105 mg/kg/day

CC(O)CN(CC(C)O)CC(C)O.Nc1c(Cl)c(Cl)nc(C(=O)O)c1Cl (centres undefined) [Picloram triisopropanolamine salt]
LEL (rat [18]; [34]): 550 mg/kg/day
LOAEL (rat [18]; [34]): 550 mg/kg/day
NEL (rat [18]; [35]): 90 mg/kg/day
NOAEL (rat [18]; [35]): 90 mg/kg/day
